Source: ChEMBL document CHEMBL3351430, “Inhibition studies of new ureido-substituted sulfonamides incorporating a GABA moiety against human carbonic anhydrase isoforms I-XIV” (Bioorg Med Chem, 2014)

Columns and labels:
Carbonic anhydrase 6 = Carbonic anhydrase 6 (Homo sapiens, UniProt P23280); assay: Inhibition of human recombinant carbonic anhydrase 6 pre-incubated for 15 mins by stopped-flow CO2 hydration assay
Carbonic anhydrase 9 = Carbonic anhydrase 9 (Homo sapiens, UniProt Q16790)
Description: Inhibition of human recombinant carbonic anhydrase 9 pre-incubated for 15 mins by stopped-flow CO2 hydration assay

Carbonic anhydrase 3 = Carbonic anhydrase 3 (Homo sapiens, UniProt P07451)
Carbonic anhydrase 3, sequence (P07451 whole entry): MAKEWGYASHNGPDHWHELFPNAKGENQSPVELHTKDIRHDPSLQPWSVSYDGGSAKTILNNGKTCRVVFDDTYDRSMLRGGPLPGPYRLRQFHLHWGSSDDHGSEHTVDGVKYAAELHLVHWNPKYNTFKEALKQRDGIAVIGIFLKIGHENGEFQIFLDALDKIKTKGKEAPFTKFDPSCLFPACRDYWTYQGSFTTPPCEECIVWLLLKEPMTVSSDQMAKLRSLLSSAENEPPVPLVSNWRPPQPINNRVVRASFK
Description: Inhibition of human recombinant carbonic anhydrase 3 pre-incubated for 15 mins by stopped-flow CO2 hydration assay

Carbonic anhydrase 13 = Carbonic anhydrase 13 (Homo sapiens, UniProt Q8N1Q1)
Carbonic anhydrase 13, sequence (Q8N1Q1 whole entry): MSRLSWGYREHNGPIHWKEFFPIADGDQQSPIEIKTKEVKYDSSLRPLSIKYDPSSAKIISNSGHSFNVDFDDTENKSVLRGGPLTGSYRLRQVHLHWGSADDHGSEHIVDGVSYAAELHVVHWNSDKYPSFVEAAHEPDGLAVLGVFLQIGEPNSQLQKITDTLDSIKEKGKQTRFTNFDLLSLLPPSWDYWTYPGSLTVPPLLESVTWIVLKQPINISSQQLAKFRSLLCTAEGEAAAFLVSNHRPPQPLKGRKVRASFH
Description: Inhibition of human recombinant carbonic anhydrase 13 pre-incubated for 15 mins by stopped-flow CO2 hydration assay

Carbonic anhydrase 6, sequence (P23280 whole entry): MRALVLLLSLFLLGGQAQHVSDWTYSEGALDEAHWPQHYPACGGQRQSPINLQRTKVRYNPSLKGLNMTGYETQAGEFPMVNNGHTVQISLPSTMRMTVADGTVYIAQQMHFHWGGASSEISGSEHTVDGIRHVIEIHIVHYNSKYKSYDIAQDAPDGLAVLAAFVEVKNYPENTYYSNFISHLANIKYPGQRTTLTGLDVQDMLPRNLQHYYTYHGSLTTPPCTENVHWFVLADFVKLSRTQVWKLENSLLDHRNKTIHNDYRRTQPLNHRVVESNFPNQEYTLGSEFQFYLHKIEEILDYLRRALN

SMILES | Ki (Carbonic anhydrase 6) [nM] | Ki (Carbonic anhydrase 9) [nM] | Ki (Carbonic anhydrase 3) [nM] | Ki (Carbonic anhydrase 13) [nM]
NS(=O)(=O)c1ccc(CNC(=O)CCCNC(=O)Nc2ccccc2)cc1 | > 120 | 46 | > 21000 | > 240
NS(=O)(=O)c1ccc(CCNC(=O)CCCNC(=O)NCc2ccccc2)cc1 | > 120 | 106 | > 21000 | > 240
NS(=O)(=O)c1ccc(CCNC(=O)CCCNC(=O)Nc2ccc([N+](=O)[O-])cc2)cc1 | > 120 | 139 | > 21000 | > 240

Results, then the compound that gave them:

Ki (Carbonic anhydrase 6) [nM] | Ki (Carbonic anhydrase 9) [nM] | Ki (Carbonic anhydrase 3) [nM] | Ki (Carbonic anhydrase 13) [nM] | SMILES
> 120 | 41.6 | > 21000 | > 240 | NS(=O)(=O)c1ccc(CCNC(=O)CCCNC(=O)Nc2ccccc2)cc1
> 120 |  | > 21000 | > 240 | NS(=O)(=O)c1ccc(CNC(=O)CCCNC(=O)NCc2ccccc2)cc1
> 120 | 301 | > 21000 | > 240 | NS(=O)(=O)c1ccc(CNC(=O)CCCNC(=O)NCCc2ccccc2)cc1
